# Test results reported in patent US11753407B2, “Compounds for treating spinal muscular atrophy” (PTC Therapeutics, Inc., priority 2012, dated 2023).
# Columns and labels:
# [1] = tested on: SMN2 minigene mRNA (SMN2-A minigene) in HEK293H cells; test: SMN2 minigene mRNA splicing RT-qPCR assay in cultured cells; format: cell-based, human; conditions: Homo sapiens, HEK293-H; concentration increasing full length SMN2 mRNA 1.5-fold relative to vehicle-treated cells; HEK293H cells with SMN2-A minigene, 24 hours, 7-point concentration data; read-out: EC1.5x for production of full length SMN2 mRNA
# Outline: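 Stable SMN2-A minigene HEK293H; cpd 7-pt 3.16-fold series, 200× in DMSO, 24 h, 37 °C, n=2. Lysates → multiplex RT-qPCR (minigene FL + GAPDH), efficiency-corrected ΔΔCt vs vehicle. EC1.5× = 1.5-fold FL mRNA gain.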
# [2] = tested on: Smn protein in SMA patient fibroblast cells (GM03813); test: Smn protein assay in cultured cells (SMN HTRF); format: cell-based, human; conditions: SMA patient fibroblast cells, 48 hours; for EC1.5x for Smn protein expression: 7-point concentration curve, SMN HTRF, concentration producing 1.5 times Smn protein vs DMSO vehicle control; for maximum fold (Fold) increase of Smn protein: 7-point concentration data, fold relative to vehicle control
# Outline: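 Fibroblasts, SMA patient; 5,000 cells/well; 7-pt curve, 3.16-fold serial dilution; 48 h, 37 °C, 5% CO2; RIPA lysis 1 h RT; anti-SMN d2 + kryptate overnight RT; HTRF 665/620 nm; fold vs DMSO; EC1.5×, max fold.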
SMILES,melting point,EC (1.5-fold increase) [1],EC1.5x for Smn protein expression [2],maximum fold (Fold) increase of Smn protein [2]
"Cc1cn2cc(-c3cc(=O)n4cc(C5CCN(C)CC5)ccc4n3)cc(C)c2n1 [Compound 614, 2-(2,8-dimethylimidazo[1,2-a]pyridin-6-yl)-7-(1-methylpiperidin-4-yl)-4H-pyrido[1,2-a]pyrimidin-4-one]",200 to 202 °C,< 0.1 µM,**** (an EC1.5x≤0.3 μM is indicated by four stars (****)),***** (a fold increase >1.65 is indicated by five stars (*****))
"CCN1CCC(c2ccc3nc(-c4cc(C)c5nc(C)cn5c4)cc(=O)n3c2)CC1 [Compound 615, 2-(2,8-dimethylimidazo[1,2-a]pyridin-6-yl)-7-(1-ethylpiperidin-4-yl)-4H-pyrido[1,2-a]pyrimidin-4-one]",202 to 204 °C,< 0.1 µM,**** (an EC1.5x≤0.3 μM is indicated by four stars (****)),**** (a fold increase between >1.5 and ≤1.65 is indicated by four stars (****))
"Cc1cn2cc(-c3cc(=O)n4cc(C5CCN(C(C)C)CC5)ccc4n3)cc(C)c2n1 [Compound 616, 2-(2,8-dimethylimidazo[1,2-a]pyridin-6-yl)-7-[1-(propan-2-yl)piperidin-4-yl]-4H-pyrido[1,2-a]pyrimidin-4-one]",242 to 244 °C,< 0.1 µM,**** (an EC1.5x≤0.3 μM is indicated by four stars (****)),***** (a fold increase >1.65 is indicated by five stars (*****))
"CCCN1CCN(c2ccc3nc(-c4cc5c(CC)nc(C)cn5n4)cc(=O)n3c2)CC1 [Compound 618, 2-(4-ethyl-6-methylpyrazolo[1,5-a]pyrazin-2-yl)-7-(4-propylpiperazin-1-yl)-4H-pyrido[1,2-a]pyrimidin-4-one]",243 to 245 °C,< 0.1 µM,**** (an EC1.5x≤0.3 μM is indicated by four stars (****)),***** (a fold increase >1.65 is indicated by five stars (*****))
"CCc1nc(C)cn2nc(-c3cc(=O)n4cc(N5CCN(C(C)C)CC5)ccc4n3)cc12 [Compound 619, 2-(4-ethyl-6-methylpyrazolo[1,5-a]pyrazin-2-yl)-7-[4-(propan-2-yl)piperazin-1-yl]-4H-pyrido[1,2-a]pyrimidin-4-one]",255 to 258 °C,0.1 to 0.3 µM,*** (an EC1.5× between >0.3 μM and ≤1 μM is indicated by three stars (***)),***** (a fold increase >1.65 is indicated by five stars (*****))
"CCc1nc(C)cn2nc(-c3cc(=O)n4cc(N5CCN(C6CC6)CC5)ccc4n3)cc12 [Compound 620, 7-(4-cyclopropylpiperazin-1-yl)-2-(4-ethyl-6-methylpyrazolo[1,5-a]pyrazin-2-yl)-4H-pyrido[1,2-a]pyrimidin-4-one]",258 to 260 °C,0.3 to 1 µM,** (an EC1.5× between >1 μM and ≤3 μM is indicated by two stars (**)),*** (a fold increase between >1.35 and ≤1.5 is indicated by three stars (***))
"CCc1nc(C)cn2nc(-c3cc(=O)n4cc(N5CCN(C6CCC6)CC5)ccc4n3)cc12 [Compound 621, 7-(4-cyclobutylpiperazin-1-yl)-2-(4-ethyl-6-methylpyrazolo[1,5-a]pyrazin-2-yl)-4H-pyrido[1,2-a]pyrimidin-4-one]",275 to 278 °C,0.3 to 1 µM,**** (an EC1.5x≤0.3 μM is indicated by four stars (****)),***** (a fold increase >1.65 is indicated by five stars (*****))
"CCc1nc(C)cn2nc(-c3cc(=O)n4cc(N5CCN(C6COC6)CC5)ccc4n3)cc12 [Compound 622, 2-(4-ethyl-6-methylpyrazolo[1,5-a]pyrazin-2-yl)-7-[4-(oxetan-3-yl)piperazin-1-yl]-4H-pyrido[1,2-a]pyrimidin-4-one]",205 to 208 °C,1 to 3 µM,** (an EC1.5× between >1 μM and ≤3 μM is indicated by two stars (**)),**** (a fold increase between >1.5 and ≤1.65 is indicated by four stars (****))
"CCN1CCC2CN(c3ccc4nc(-c5cc6c(C)nc(C)cn6n5)cc(=O)n4c3)CCC21 (centres unmarked) [Compound 623, 2-(4,6-dimethylpyrazolo[1,5-a]pyrazin-2-yl)-7-(1-ethyloctahydro-5H-pyrrolo[3,2-c]pyridin-5-yl)-4H-pyrido[1,2-a]pyrimidin-4-one]",176 to 178 °C,< 0.1 µM,**** (an EC1.5x≤0.3 μM is indicated by four stars (****)),***** (a fold increase >1.65 is indicated by five stars (*****))

# Further lines, with some results ahead:
melting point,SMILES,EC (1.5-fold increase) [1],EC1.5x for Smn protein expression [2],maximum fold (Fold) increase of Smn protein [2]
184 to 187 °C,"Cc1cn2nc(-c3cc(=O)n4cc(N5CCC6C(CCN6CCO)C5)ccc4n3)cc2c(C)n1 (centres unmarked) [Compound 624, 2-(4,6-dimethylpyrazolo[1,5-a]pyrazin-2-yl)-7-[1-(2-hydroxyethyl)octahydro-5H-pyrrolo[3,2-c]pyridin-5-yl]-4H-pyrido[1,2-a]pyrimidin-4-one]",< 0.1 µM,**** (an EC1.5x≤0.3 μM is indicated by four stars (****)),***** (a fold increase >1.65 is indicated by five stars (*****))
229 to 231 °C,"Cc1cn2cc(-c3cc(=O)n4cc(C5CCN(C(C)C)CC5)ncc4n3)ccc2n1 [Compound 627, 2-(2-methylimidazo[1,2-a]pyridin-6-yl)-7-[1-(propan-2-yl)piperidin-4-yl]-4H-pyrazino[1,2-a]pyrimidin-4-one]",0.1 to 0.3 µM,** (an EC1.5× between >1 μM and ≤3 μM is indicated by two stars (**)),**** (a fold increase between >1.5 and ≤1.65 is indicated by four stars (****))
249 to 251 °C,"Cc1cn2cc(-c3cc(=O)n4cc(C5CCN(C6CCC6)CC5)ncc4n3)ccc2n1 [Compound 628, 7-(1-cyclobutylpiperidin-4-yl)-2-(2-methylimidazo[1,2-a]pyridin-6-yl)-4H-pyrazino[1,2-a]pyrimidin-4-one]",0.3 to 1 µM,* (An EC1.5× for Smn protein expression between >3 μM and ≤10 μM is indicated by one star (*)),**** (a fold increase between >1.5 and ≤1.65 is indicated by four stars (****))
256 to 258 °C,"CCc1nc(C)cn2nc(-c3cc(=O)n4cc(N5CCN(CC)[C@H](C)C5)ccc4n3)cc12 [Compound 630, 7-[(3R)-4-ethyl-3-methylpiperazin-1-yl]-2-(4-ethyl-6-methylpyrazolo[1,5-a]pyrazin-2-yl)-4H-pyrido[1,2-a]pyrimidin-4-one]",< 0.1 µM,**** (an EC1.5x≤0.3 μM is indicated by four stars (****)),***** (a fold increase >1.65 is indicated by five stars (*****))
243 to 245 °C,"CCCN1CCN(c2ccc3nc(-c4cc5c(CC)nc(C)cn5n4)cc(=O)n3c2)C[C@H]1C [Compound 631, 2-(4-ethyl-6-methylpyrazolo[1,5-a]pyrazin-2-yl)-7-[(3R)-3-methyl-4-propylpiperazin-1-yl]-4H-pyrido[1,2-a]pyrimidin-4-one]",0.1 to 0.3 µM,*** (an EC1.5× between >0.3 μM and ≤1 μM is indicated by three stars (***)),***** (a fold increase >1.65 is indicated by five stars (*****))
238 to 241 °C,"CCc1nc(C)cn2nc(-c3cc(=O)n4cc(N5CCN(CCO)[C@H](C)C5)ccc4n3)cc12 [Compound 632, 2-(4-ethyl-6-methylpyrazolo[1,5-a]pyrazin-2-yl)-7-[(3R)-4-(2-hydroxyethyl)-3-methylpiperazin-1-yl]-4H-pyrido[1,2-a]pyrimidin-4-one]",< 0.1 µM,**** (an EC1.5x≤0.3 μM is indicated by four stars (****)),***** (a fold increase >1.65 is indicated by five stars (*****))
258 to 260 °C,"CCc1nc(C)cn2nc(-c3cc(=O)n4cc(N5C[C@@H](C)N[C@@H](C)C5)ccc4n3)cc12 [Compound 633, 7-[(3R,5S)-3,5-dimethylpiperazin-1-yl]-2-(4-ethyl-6-methylpyrazolo[1,5-a]pyrazin-2-yl)-4H-pyrido[1,2-a]pyrimidin-4-one]",< 0.1 µM,**** (an EC1.5x≤0.3 μM is indicated by four stars (****)),***** (a fold increase >1.65 is indicated by five stars (*****))
229 to 232 °C,"CCc1nc(C)cn2nc(-c3cc(=O)n4cc(N5CCC(N6CCCC6)CC5)ccc4n3)cc12 [Compound 634, 2-(4-ethyl-6-methylpyrazolo[1,5-a]pyrazin-2-yl)-7-[4-(pyrrolidin-1-yl)piperidin-1-yl]-4H-pyrido[1,2-a]pyrimidin-4-one]",< 0.1 µM,**** (an EC1.5x≤0.3 μM is indicated by four stars (****)),***** (a fold increase >1.65 is indicated by five stars (*****))
